Assay results from paper PMC5540273, “Progress towards a public chemogenomic set for protein kinases and a call for contributions” (PLoS ONE, 2017).

biological target: BRAF (Homo sapiens, UniProt P15056); assay: KINOMEscan competition binding; conditions: read-out: %Inh BRAF
Sequence (P15056 whole entry): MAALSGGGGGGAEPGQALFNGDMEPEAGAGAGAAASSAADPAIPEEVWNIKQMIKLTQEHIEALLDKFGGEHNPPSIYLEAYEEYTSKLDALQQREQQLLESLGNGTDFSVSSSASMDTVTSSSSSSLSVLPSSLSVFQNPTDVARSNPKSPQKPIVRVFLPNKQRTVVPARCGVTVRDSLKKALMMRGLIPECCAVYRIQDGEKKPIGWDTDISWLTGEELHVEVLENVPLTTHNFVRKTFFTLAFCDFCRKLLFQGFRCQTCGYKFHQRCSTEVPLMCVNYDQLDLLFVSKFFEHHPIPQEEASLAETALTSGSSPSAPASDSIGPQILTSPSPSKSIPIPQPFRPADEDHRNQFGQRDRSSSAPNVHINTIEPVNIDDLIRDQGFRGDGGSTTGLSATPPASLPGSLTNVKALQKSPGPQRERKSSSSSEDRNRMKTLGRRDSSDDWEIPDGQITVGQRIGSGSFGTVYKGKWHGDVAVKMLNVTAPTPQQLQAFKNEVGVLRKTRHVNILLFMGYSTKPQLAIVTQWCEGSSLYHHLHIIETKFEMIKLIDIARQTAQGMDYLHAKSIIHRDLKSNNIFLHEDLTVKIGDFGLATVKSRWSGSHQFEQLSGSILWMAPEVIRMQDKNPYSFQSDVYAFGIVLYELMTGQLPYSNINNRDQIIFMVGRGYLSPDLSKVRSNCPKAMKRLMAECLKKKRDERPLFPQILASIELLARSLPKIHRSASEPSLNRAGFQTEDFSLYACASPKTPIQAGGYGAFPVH

Compound | inhibition at 1 µM [%]
O=c1cc(N2CCOCC2)nc2n(Cc3cccc(Cl)c3Cl)c(C3CC3)nn12 [UNC10225469A] | 0
Cn1cc(-c2cnc(N)c3c(-c4ccc5c(c4)CCN5C(=O)Cc4ccccc4)csc23)cn1 [UNC10225012A] | 0
CS(=O)(=O)Cc1ccc(Nc2nccc(-c3c(-c4cccc(NC(=O)C5CCCCC5)c4)nn4ncccc34)n2)cc1 [UNC10225159A] | 20
COc1cccc(OC)c1C(=O)Nc1cccc(-c2nn3ccccc3c2-c2ccnc(Nc3cccc(F)c3)n2)c1 [UNC10225310A] | 17
Cc1ccc(NC(=O)Nc2cccc(C(F)(F)F)c2)cc1 [UNC10225187A] | 0

biological target: CLK4 (Homo sapiens, UniProt Q9HAZ1); assay: KINOMEscan competition binding; conditions: read-out: %Inh CLK4
Sequence (Q9HAZ1 whole entry): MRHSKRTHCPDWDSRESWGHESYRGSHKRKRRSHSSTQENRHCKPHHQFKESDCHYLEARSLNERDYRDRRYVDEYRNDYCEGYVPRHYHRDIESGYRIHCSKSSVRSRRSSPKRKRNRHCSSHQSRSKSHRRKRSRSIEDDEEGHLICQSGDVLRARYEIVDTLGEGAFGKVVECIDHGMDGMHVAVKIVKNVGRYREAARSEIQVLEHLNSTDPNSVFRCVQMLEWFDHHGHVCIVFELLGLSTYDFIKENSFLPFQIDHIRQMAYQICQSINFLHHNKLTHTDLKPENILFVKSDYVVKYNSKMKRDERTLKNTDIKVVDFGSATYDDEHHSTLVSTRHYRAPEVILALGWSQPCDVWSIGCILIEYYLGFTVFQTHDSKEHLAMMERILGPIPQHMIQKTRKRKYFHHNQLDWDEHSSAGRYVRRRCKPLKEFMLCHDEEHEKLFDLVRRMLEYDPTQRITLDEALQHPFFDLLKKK

Compound | inhibition at 1 µM [%]
O=c1cc(N2CCOCC2)nc2n(Cc3cccc(Cl)c3Cl)c(C3CC3)nn12 [UNC10225469A] | 0
Cn1cc(-c2cnc(N)c3c(-c4ccc5c(c4)CCN5C(=O)Cc4ccccc4)csc23)cn1 [UNC10225012A] | 0
CS(=O)(=O)Cc1ccc(Nc2nccc(-c3c(-c4cccc(NC(=O)C5CCCCC5)c4)nn4ncccc34)n2)cc1 [UNC10225159A] | 0
COc1cccc(OC)c1C(=O)Nc1cccc(-c2nn3ccccc3c2-c2ccnc(Nc3cccc(F)c3)n2)c1 [UNC10225310A] | 0
Cc1ccc(NC(=O)Nc2cccc(C(F)(F)F)c2)cc1 [UNC10225187A] | 0

biological target: DYRK1A (Homo sapiens, UniProt Q13627); assay: KINOMEscan competition binding; conditions: read-out: %Inh DYRK1A

Compound | inhibition at 1 µM [%]
O=c1cc(N2CCOCC2)nc2n(Cc3cccc(Cl)c3Cl)c(C3CC3)nn12 [UNC10225469A] | 2
Cn1cc(-c2cnc(N)c3c(-c4ccc5c(c4)CCN5C(=O)Cc4ccccc4)csc23)cn1 [UNC10225012A] | 0
CS(=O)(=O)Cc1ccc(Nc2nccc(-c3c(-c4cccc(NC(=O)C5CCCCC5)c4)nn4ncccc34)n2)cc1 [UNC10225159A] | 26
COc1cccc(OC)c1C(=O)Nc1cccc(-c2nn3ccccc3c2-c2ccnc(Nc3cccc(F)c3)n2)c1 [UNC10225310A] | 0
Cc1ccc(NC(=O)Nc2cccc(C(F)(F)F)c2)cc1 [UNC10225187A] | 0

biological target: T1, BRSK1 (Homo sapiens, UniProt Q8TDC3); assay: KINOMEscan competition binding; conditions: read-out: %Inh BRSK1
T1 sequence (Q8TDC3 1-778): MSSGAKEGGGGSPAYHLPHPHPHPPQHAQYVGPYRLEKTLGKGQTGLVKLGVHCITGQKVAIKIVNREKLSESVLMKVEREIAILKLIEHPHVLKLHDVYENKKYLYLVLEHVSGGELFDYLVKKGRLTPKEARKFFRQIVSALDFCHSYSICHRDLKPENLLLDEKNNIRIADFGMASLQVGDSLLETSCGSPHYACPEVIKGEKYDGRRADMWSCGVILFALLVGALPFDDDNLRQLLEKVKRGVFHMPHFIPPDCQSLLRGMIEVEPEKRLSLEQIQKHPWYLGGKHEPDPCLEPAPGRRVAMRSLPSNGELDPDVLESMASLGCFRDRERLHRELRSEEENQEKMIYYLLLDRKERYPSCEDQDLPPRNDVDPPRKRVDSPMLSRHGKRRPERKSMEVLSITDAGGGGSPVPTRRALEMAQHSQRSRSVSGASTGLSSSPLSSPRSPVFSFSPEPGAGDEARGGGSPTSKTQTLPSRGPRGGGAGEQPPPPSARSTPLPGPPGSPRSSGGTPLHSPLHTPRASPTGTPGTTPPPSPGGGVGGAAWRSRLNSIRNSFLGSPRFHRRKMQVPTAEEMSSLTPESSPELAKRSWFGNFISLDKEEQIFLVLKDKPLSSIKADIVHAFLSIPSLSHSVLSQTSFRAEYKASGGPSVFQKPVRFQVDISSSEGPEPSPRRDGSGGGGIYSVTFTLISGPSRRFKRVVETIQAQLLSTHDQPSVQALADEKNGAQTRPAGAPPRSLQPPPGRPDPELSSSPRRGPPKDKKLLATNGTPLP

Compound | inhibition at 1 µM [%]
O=c1cc(N2CCOCC2)nc2n(Cc3cccc(Cl)c3Cl)c(C3CC3)nn12 [UNC10225469A] | 3
Cn1cc(-c2cnc(N)c3c(-c4ccc5c(c4)CCN5C(=O)Cc4ccccc4)csc23)cn1 [UNC10225012A] | 0
CS(=O)(=O)Cc1ccc(Nc2nccc(-c3c(-c4cccc(NC(=O)C5CCCCC5)c4)nn4ncccc34)n2)cc1 [UNC10225159A] | 0
COc1cccc(OC)c1C(=O)Nc1cccc(-c2nn3ccccc3c2-c2ccnc(Nc3cccc(F)c3)n2)c1 [UNC10225310A] | 0
Cc1ccc(NC(=O)Nc2cccc(C(F)(F)F)c2)cc1 [UNC10225187A] | 0

biological target: CSNK1G3 (Homo sapiens, UniProt Q9Y6M4); assay: KINOMEscan competition binding; conditions: read-out: %Inh CSNK1G3
Sequence (Q9Y6M4 whole entry): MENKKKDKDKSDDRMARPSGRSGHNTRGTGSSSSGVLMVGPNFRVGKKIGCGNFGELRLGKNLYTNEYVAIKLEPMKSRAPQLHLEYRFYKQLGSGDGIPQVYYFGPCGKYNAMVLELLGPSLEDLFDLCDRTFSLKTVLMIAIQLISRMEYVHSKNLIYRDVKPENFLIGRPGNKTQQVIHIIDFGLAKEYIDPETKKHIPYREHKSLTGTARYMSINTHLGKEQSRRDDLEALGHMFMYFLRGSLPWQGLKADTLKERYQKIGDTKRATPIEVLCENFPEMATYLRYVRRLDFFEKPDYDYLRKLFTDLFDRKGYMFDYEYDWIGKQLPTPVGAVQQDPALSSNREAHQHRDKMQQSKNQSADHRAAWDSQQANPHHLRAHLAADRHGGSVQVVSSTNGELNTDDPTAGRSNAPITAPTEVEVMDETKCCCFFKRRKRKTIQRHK

Compound | inhibition at 1 µM [%]
O=c1cc(N2CCOCC2)nc2n(Cc3cccc(Cl)c3Cl)c(C3CC3)nn12 [UNC10225469A] | 23
Cn1cc(-c2cnc(N)c3c(-c4ccc5c(c4)CCN5C(=O)Cc4ccccc4)csc23)cn1 [UNC10225012A] | 22
CS(=O)(=O)Cc1ccc(Nc2nccc(-c3c(-c4cccc(NC(=O)C5CCCCC5)c4)nn4ncccc34)n2)cc1 [UNC10225159A] | 4
COc1cccc(OC)c1C(=O)Nc1cccc(-c2nn3ccccc3c2-c2ccnc(Nc3cccc(F)c3)n2)c1 [UNC10225310A] | 3
Cc1ccc(NC(=O)Nc2cccc(C(F)(F)F)c2)cc1 [UNC10225187A] | 0

biological target: CSNK1G1 (Homo sapiens, UniProt Q9HCP0); assay: KINOMEscan competition binding; conditions: read-out: %Inh CSNK1G1
Sequence (Q9HCP0 whole entry): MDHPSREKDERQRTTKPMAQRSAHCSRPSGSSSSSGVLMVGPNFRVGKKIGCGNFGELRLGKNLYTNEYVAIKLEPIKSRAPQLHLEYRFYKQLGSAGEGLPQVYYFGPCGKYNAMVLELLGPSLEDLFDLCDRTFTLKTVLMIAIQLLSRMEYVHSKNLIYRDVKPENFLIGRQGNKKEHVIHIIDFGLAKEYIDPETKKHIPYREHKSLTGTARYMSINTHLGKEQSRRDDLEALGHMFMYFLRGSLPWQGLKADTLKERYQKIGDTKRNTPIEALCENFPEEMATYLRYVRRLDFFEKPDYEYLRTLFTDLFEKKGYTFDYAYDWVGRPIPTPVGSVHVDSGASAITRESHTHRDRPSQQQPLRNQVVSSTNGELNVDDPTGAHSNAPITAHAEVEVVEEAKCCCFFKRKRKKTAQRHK

Compound | inhibition at 1 µM [%]
O=c1cc(N2CCOCC2)nc2n(Cc3cccc(Cl)c3Cl)c(C3CC3)nn12 [UNC10225469A] | 0
Cn1cc(-c2cnc(N)c3c(-c4ccc5c(c4)CCN5C(=O)Cc4ccccc4)csc23)cn1 [UNC10225012A] | 21
CS(=O)(=O)Cc1ccc(Nc2nccc(-c3c(-c4cccc(NC(=O)C5CCCCC5)c4)nn4ncccc34)n2)cc1 [UNC10225159A] | 2
COc1cccc(OC)c1C(=O)Nc1cccc(-c2nn3ccccc3c2-c2ccnc(Nc3cccc(F)c3)n2)c1 [UNC10225310A] | 14
Cc1ccc(NC(=O)Nc2cccc(C(F)(F)F)c2)cc1 [UNC10225187A] | 0

biological target: T2, ASK2 (Homo sapiens, UniProt O95382); assay: KINOMEscan competition binding; conditions: read-out: %Inh ASK2
T2 sequence (O95382 1-1288): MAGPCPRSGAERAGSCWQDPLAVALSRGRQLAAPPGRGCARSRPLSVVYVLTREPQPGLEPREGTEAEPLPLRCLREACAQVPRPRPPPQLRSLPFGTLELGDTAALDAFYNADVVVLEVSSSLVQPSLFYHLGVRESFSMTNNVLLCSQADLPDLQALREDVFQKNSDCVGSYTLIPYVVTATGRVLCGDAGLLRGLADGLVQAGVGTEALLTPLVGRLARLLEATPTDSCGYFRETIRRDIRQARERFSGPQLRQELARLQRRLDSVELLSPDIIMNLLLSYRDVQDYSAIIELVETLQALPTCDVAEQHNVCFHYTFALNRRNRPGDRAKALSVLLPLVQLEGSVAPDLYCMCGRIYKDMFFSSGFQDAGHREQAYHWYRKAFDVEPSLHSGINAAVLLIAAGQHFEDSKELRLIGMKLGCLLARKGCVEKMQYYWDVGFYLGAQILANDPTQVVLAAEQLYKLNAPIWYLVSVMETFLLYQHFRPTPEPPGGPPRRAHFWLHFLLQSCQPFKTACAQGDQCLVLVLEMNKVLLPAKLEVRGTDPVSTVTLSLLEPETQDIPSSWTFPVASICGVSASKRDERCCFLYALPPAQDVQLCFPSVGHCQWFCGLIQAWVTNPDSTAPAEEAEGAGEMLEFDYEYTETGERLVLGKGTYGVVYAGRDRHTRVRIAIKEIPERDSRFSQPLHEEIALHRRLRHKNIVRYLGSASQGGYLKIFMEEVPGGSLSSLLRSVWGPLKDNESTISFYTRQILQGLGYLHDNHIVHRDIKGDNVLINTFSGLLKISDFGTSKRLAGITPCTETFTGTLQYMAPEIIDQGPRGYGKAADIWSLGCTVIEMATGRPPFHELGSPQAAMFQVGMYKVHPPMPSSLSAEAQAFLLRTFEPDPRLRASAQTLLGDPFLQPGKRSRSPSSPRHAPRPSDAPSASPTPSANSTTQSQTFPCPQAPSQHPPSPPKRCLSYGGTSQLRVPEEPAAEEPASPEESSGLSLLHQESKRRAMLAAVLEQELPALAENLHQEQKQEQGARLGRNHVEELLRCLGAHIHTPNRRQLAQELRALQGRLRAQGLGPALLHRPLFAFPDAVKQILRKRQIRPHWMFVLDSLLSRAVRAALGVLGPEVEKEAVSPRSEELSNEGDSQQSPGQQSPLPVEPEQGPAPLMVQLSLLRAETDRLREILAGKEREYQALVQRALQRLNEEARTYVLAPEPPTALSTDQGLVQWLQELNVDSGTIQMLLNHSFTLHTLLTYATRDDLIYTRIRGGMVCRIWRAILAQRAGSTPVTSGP

Compound | inhibition at 1 µM [%]
O=c1cc(N2CCOCC2)nc2n(Cc3cccc(Cl)c3Cl)c(C3CC3)nn12 [UNC10225469A] | 0
Cn1cc(-c2cnc(N)c3c(-c4ccc5c(c4)CCN5C(=O)Cc4ccccc4)csc23)cn1 [UNC10225012A] | 17
CS(=O)(=O)Cc1ccc(Nc2nccc(-c3c(-c4cccc(NC(=O)C5CCCCC5)c4)nn4ncccc34)n2)cc1 [UNC10225159A] | 34
COc1cccc(OC)c1C(=O)Nc1cccc(-c2nn3ccccc3c2-c2ccnc(Nc3cccc(F)c3)n2)c1 [UNC10225310A] | 0
Cc1ccc(NC(=O)Nc2cccc(C(F)(F)F)c2)cc1 [UNC10225187A] | 0
